From patent US20240423945A1, “USE OF FERROPTOSIS INHIBITOR IN PREPARATION OF DRUG FOR TREATING GASTRITIS” (CHILDREN'S HOSPITAL OF CHONGQING MEDICAL UNIVERSITY, priority 2022, published 2024)

How the values were obtained:
[1] = test system: GES-1-134 cell (GRIM-19-knockout human gastric mucosal epithelial cell GES-1); assay: CCK-8 proliferation viability of GES-1-134 cell intervened with ferrostatin-1; assay type: cell-based; settings: CCK-8, FIG. 8
Method: A CCK-8 kit (Solarbio) was used to analyze the proliferation viability changes of GES-1-NC and GES-1-134 cells, and a specific process was as follows: • (1) The cells were inoculated into a 96-well plate at 5,000 cells/well. • (2) The cells were cultivated at 37° C. and 5% CO2 for 24 h, 48 h, and 72 h. • (3) 10 μL of a CCK-8 solution was added to each well during detection. • (4) The plate was incubated in an incubator for 1 h. • (5) A microplate reader was used to determine the absorbance at 450 nm.
A CCK-8 kit was used to analyze a change of proliferation viability of the GES-1-134 cell intervened with the ferroptosis inhibitor ferrostatin-1. After the GES-1-134 cell was intervened with the ferroptosis inhibitor ferrostatin-1, the proliferation ability was increased and the viability was recovered.

[2] = test system: ferroptosis marker proteins (COX2, GPX4, FTH1, and TFR) in the GES-1-134 cell; assay: WB of ferroptosis marker proteins in GES-1-134 cell treated with ferrostatin-1; assay type: cell-based, Human; settings: ferrostatin-1 0, 5, 10 μM, FIG. 9A
Method: (§1) 4. The expression of GRIM-19 was analyzed by WB, and a specific process was as follows: • (1) The cells were subjected to lysis with an RIPA lysis buffer (Beyotime) on ice for 30 min or more. • (2) A resulting lysate was centrifuged at 12,000 rpm for 10 min, and a resulting supernatant was collected. • (3) A corresponding volume of a sodium dodecyl sulfate-polyacrylamide gel electrophoresis (SDS-PAGE) protein loading buffer was added, and a resulting mixture was incubated in a metal bath at 100° C. for 10 min. • (4) SDS-PAGE was conducted. • (5) Blocking was conducted at room temperature for 30 min. • (6) A primary antibody was added, and a resulting mixture was incubated overnight at 4° C. on a shaker. • (7) A membrane was washed with TBST three times for 10 min each time. • (8) A secondary antibody was added, and a resulting mixture was incubated for 1 h at room temperature on a shaker. • (9) A membrane was washed with TBST three times for 10 min each time. • (10) Development was conducted.
(§2) WB was used to analyze the expression of ferroptosis markers in the GES-1-134 cell and the GRIM-19^−/− mouse gastric mucosal tissue that each were intervened with ferrostatin-1.

[3] = test system: ferroptosis marker proteins (COX2, GPX4, FTH1, and TFR) in the GRIM-19−/− mouse gastric mucosal tissue; assay: WB of ferroptosis marker proteins in GRIM-19−/− mouse gastric mucosal tissue intervened with ferrostatin-1; assay type: in vivo; settings: ferrostatin-1 injected, FIG. 9B
Method: as §1, §2

[4] = test system: inflammatory factors IL-6, TNF-α, VEGF, GM-CSF, IL-1β, and IL-33 in the GES-1-134 cell; assay: WB of inflammatory factors in GES-1-134 cell intervened with ferrostatin-1; assay type: cell-based, Human; settings: GES-1-134 cell in vitro, FIG. 10A
Method: as §1
(§3) WB was used to detect the expression of inflammatory factors in the GES-1-134 cell and GRIM-19^−/− mouse after being intervened with the ferroptosis inhibitor ferrostatin-1.

[5] = test system: inflammatory factors in the GRIM-19−/− mouse gastric mucosal tissue; assay: WB of inflammatory factors in GRIM-19−/− mouse gastric mucosal tissue intervened with ferrostatin-1; assay type: in vivo
Method: as §1, §3

[6] = test system: SPEM marker proteins TFF2, Mist1, Clusterin-1, HE4, and MUC6 in the GRIM-19−/− mouse gastric mucosal tissue; assay: WB of SPEM markers in GRIM-19−/− mouse gastric mucosal tissue intervened with ferrostatin-1; assay type: in vivo; settings: intraperitoneally injected, compared with the PBS injection control, FIG. 11A
Method: as §1
WB was used to detect the expression of SPEM markers in the gastric mucosal tissue of the GRIM-19^−/− mouse intraperitoneally injected with the ferroptosis inhibitor ferrostatin-1.

[7] = test system: GIF, GSII, and Mist1 positive cells in GRIM-19−/− mouse gastric mucosal tissue; assay: GIF/GSII/Mist1 immunofluorescence colocalization analysis of SPEM markers in GRIM-19−/− mouse gastric mucosal tissue; assay type: in vivo; settings: intraperitoneally injected, compared with the PBS group, FIG. 11B
Method: After a mouse was intraperitoneally injected with the ferroptosis inhibitor ferrostatin-1, an immunofluorescence technique was used to analyze the GIF, GSII, and Mist1 positive colocalization expression of SPEM markers in a gastric mucosal tissue, and a specific process was as follows: • (1) embedding a tissue with OCT; • (2) sectioning; • (3) fixing with 4% PFA; • (4) blocking with serum; • (5) incubating with a primary antibody overnight at 4° C.; • (6) rinsing with PBS 3 times; • (7) incubating with a secondary antibody at room temperature for 2 h; • (8) rinsing with PBS 3 times; • (9) counter-staining with DAPI for 10 min; • (10) rinsing with PBS 3 times; and • (11) mounting with an anti-fluorescence attenuation agent.

[8] = compared with the PBS injection control, WB, FIG. 10B

CCOC(=O)c1ccc(NC2CCCCC2)c(N)c1 [ferrostatin-1]
recovered: viability [1]
showed the same change trend: expression level of COX-2 [3] | expression level of FTH1 [3] | expression level of GPX4 [3] | expression level of TFR [3]
effectively reduce: expression of GM-CSF ([5]; in vivo injection) | expression of IL-1β ([5]; in vivo injection) | expression of IL-33 ([5]; in vivo injection) | expression of VEGF ([5]; in vivo injection)
decreased: expression level of COX-2 [2] | expression level of TFR [2] | number of GIF+/GSII+ double-positive cells [7] | number of GIF+/GSII+/Mist1+ triple-positive cells [7] | number of GIF+/Mist1+ double-positive cells [7]
decreased significantly: number of positive cells (GIF+, GSII+, Mist1+) [7]
significantly weakened: expression of Clusterin-1 [6] | expression of HE4 [6] | expression of MUC6 [6] | expression of Mist1 [6] | expression of TFF2 [6]
significantly reduced: expression level of GM-CSF [4] | expression level of IL-1β [4] | expression level of IL-6 [4] | expression level of IL-33 [4] | expression level of TNF-α [4] | expression level of VEGF [4] | expression level of IL-6 [5, 8] | expression level of TNF-α [5, 8]
increased: proliferation ability [1] | expression level of FTH1 [2] | expression level of GPX4 [2]
